Reference: the supplement of paper PMC10307832

What was measured:
Assay in all cases: relative viability (nuclei count vs DMSO), 5 days (fraction); higher = more cells survive
[1] = compound: Nc1ncn([C@H]2C[C@H](O)[C@@H](CO)O2)c(=O)n1 [Decitabine] + C[C@@H](Oc1cc(-c2cnn(C3CCNCC3)c2)cnc1N)c1c(Cl)ccc(F)c1Cl [Crizotinib] (partner 1 µM)
Outline: (§1)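 For relative viability, nuclei counts in treated wells were divided by those in vehicle wells. Lung cancer cell lines had been pin-tool dosed in 1536-well plates the day after seeding and cultured for 5 days, then fixed and stained in one step (final 0.05% Triton X-100, 1% formaldehyde, 1 ug/ml Hoechst) and imaged at 4×. Doses were one drug alone or a fixed anchor-drug dose plus five library-drug doses (not always all listed) in √10 steps, and values are duplicate-plate medians.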

[2] = compound: COc1cc2c(Oc3ccc4[nH]c(C)cc4c3F)ncnc2cc1OCCCN1CCCC1 [Cediranib] + N=C(N)NC(=N)NCCc1ccccc1 [Phenformin] (partner 250 µM)
Outline: as §1

[3] = compound: Nc1ncn([C@H]2C[C@H](O)[C@@H](CO)O2)c(=O)n1 [Decitabine] + CS(=O)(=O)CCNCc1ccc(-c2ccc3ncnc(Nc4ccc(OCc5cccc(F)c5)c(Cl)c4)c3c2)o1 [Lapatinib] (partner 2 µM)
Outline: as §1

[4] = compound: COc1cc2c(Oc3ccc4[nH]c(C)cc4c3F)ncnc2cc1OCCCN1CCCC1 [Cediranib] + COc1cc2c(Oc3ccc(NC(=O)C4(C(=O)Nc5ccc(F)cc5)CC4)cc3F)ccnc2cc1OCCCN1CCOCC1 [Foretinib] (partner 0.25 µM)
Outline: as §1

Cell Line	relative viability ([1]; first compound 0.04 µM)	relative viability ([1]; first compound 0.1265 µM)	relative viability ([1]; first compound 0.4 µM)	relative viability ([1]; first compound 1.265 µM)	relative viability ([1]; first compound 4 µM)	relative viability ([2]; first compound 0.04 µM)	relative viability ([2]; first compound 0.1265 µM)	relative viability ([2]; first compound 0.4 µM)	relative viability ([2]; first compound 1.265 µM)	relative viability ([2]; first compound 4 µM)	relative viability ([3]; first compound 0.04 µM)	relative viability ([3]; first compound 0.1265 µM)	relative viability ([3]; first compound 0.4 µM)	relative viability ([3]; first compound 1.265 µM)	relative viability ([3]; first compound 4 µM)	relative viability ([4]; first compound 0.04 µM)	relative viability ([4]; first compound 0.1265 µM)	relative viability ([4]; first compound 0.4 µM)	relative viability ([4]; first compound 1.265 µM)	relative viability ([4]; first compound 4 µM)
NCI-H2087	0.515	0.568	0.563	0.347	0.292	0.382	0.45	0.402	0.452	0.546	0.774	0.637	0.457	0.346	0.37	1.19	1.06	0.944	1.15	1.29
HCC-366	0.237	0.362	0.121	0.102	0.0419	0.536	0.594	0.614	0.738	0.663	0.938	1.07	0.214	0.164	0.113	0.935	0.902	0.772	0.94	1.01
NCI-H2126	0.827	0.837	0.666	0.555	0.52	0.515	0.526	0.53	0.516	0.538	0.749	0.781	0.472	0.564	0.544	1.26	1.2	1.04	1.16	1.05
SK-LU-1	0.668	0.614	0.352	0.484	0.453	0.541	0.708	0.497	0.456	0.439	0.66	0.604	0.42	0.457	0.38	0.945	0.825	0.725	0.876	0.972
HCC-78	0.354	0.382	0.395	0.272	0.255	0.712	0.709	0.649	0.607	0.718	0.819	0.862	0.46	0.411	0.388	0.584	0.73	0.576	0.58	0.593
LCLC-97TM1	0.155	0.16	0.18	0.15	0.101	0.501	0.288	0.421	0.49	0.449	0.576	0.335	0.173	0.169	0.126	0.969	0.919	0.946	0.921	0.967
NCI-H1563	0.947	0.861	0.908	0.905	0.799	0.63	0.851	0.676	0.651	0.665	0.922	1.02	0.87	1.07	0.8	0.976	1.09	0.908	0.958	0.936
NCI-H838	0.389	0.314	0.228	0.248	0.2	0.588	0.513	0.49	0.452	0.603	0.566	0.549	0.226	0.307	0.205	1.02	1.02	0.994	1.01	1.05
NCI-H520	0.654	0.544	0.399	0.308	0.26	0.704	0.543	0.503	0.363	0.464	0.798	0.965	0.499	0.359	0.267	0.859	0.656	0.626	0.731	0.576
NCI-H2347	0.691	0.511	0.549	0.474	0.469	0.34	0.236	0.383	0.386	0.41	0.895	0.938	0.793	0.548	0.633	0.918	1.03	0.996	0.833	0.957
NCI-H1944	0.787	0.859	0.627	0.45	0.387	0.211	0.223	0.167	0.205	0.235	0.807	0.819	0.526	0.428	0.416	0.95	0.975	0.905	0.873	1
NCI-H2405	0.807	0.759	0.671	0.562	0.41	0.358	0.422	0.378	0.38	0.368	0.942	0.904	0.679	0.553	0.434	1.1	1.13	1.03	1.1	1.02
HCC-15	0.705	0.643	0.333	0.412	0.355	0.491	–	0.474	0.512	0.509	0.634	0.778	0.223	0.345	0.366	1.01	–	0.946	1.07	1.09
